Data published in article PMC10150366, “Discovery of an In Vivo Chemical Probe for BCL6 Inhibition by Optimization of Tricyclic Quinolinones” (Journal of Medicinal Chemistry, 2023).
Values joined by “and” are separate entries in the source; they are usually repeats but may differ in a detail not shown here. Identical values can stand only once. Like-named read-outs stand apart in the source and are kept apart here.

How the values were obtained:
BCL6 = conditions: OCI-Ly1 cells, cited from earlier work; for DC50: read-out: MSD degrader assay [OCI-Ly1] DC50
[1] = cited from earlier work
[2] = tested on: Caco-2 human colon carcinoma cell line; conditions: cited from earlier work; for CACO-2 (ER): efflux ratio
human BCL6 BTB domain = human BCL6 BTB domain (Homo sapiens, UniProt P41182); assay: BCL6 TR-FRET assay; assay type: binding; conditions: for IC90: read-out: BCL6 TR-FRET IC90 Geometric Mean
Protocol: 1. Supplementary experimental: protein production, purification and crystallography 1.1 BCL6 constructs used for assays and crystallography […]
cleavage site. For the TR-FRET assay, the Trx-6His-HRV3C-BCL6 protein construct was used without cleaving the tag, as a 6His was needed to bind to the anti-6His-Terbium antibody. […]
For both plasmid constructs described above, transformed BL21-AI E. coli cells were grown in LB media […]
Expression was carried out at 18 °C for 18 hours. Cells were harvested by centrifugation (5500 g for 30 minutes at 4 °C) and stored at -80 °C.
Cells were re-suspended in a buffer composed of 20 mM Tris pH 8, 250 mM NaCl, 1 mM MgCl2, 0.5 mM […]
lysed by sonication followed by centrifugation at 21,000 g for 45 minutes at 4 °C. […]
ResourceQ and gel filtration using a HiLoad 26/60 Superdex75 column in a buffer containing 20 mM HEPES […]
The final protein was assessed for purity and molar mass by SDS-PAGE and high-resolution mass spectrometry, respectively.
For the uncleaved Trx-6His-HRV3C-BCL6 protein construct to be used in TR-FRET, the protein was directly eluted from the HisTrap FF column without HRV-3C treatment, and submitted to Superdex75 gel filtration […]
Test compounds in DMSO or DMSO alone […]
concentration in 0.7% v/v DMSO final. […]

[3] = biological target: T1, BCL6-SMRT (NCOR2) corepressor protein-protein interaction (Homo sapiens, UniProt P41182); assay: NanoBRET cellular assay (HEK293T); assay type: cell-based
T1 construct: DNA encoding full length BCL6 and SMRT; expressed in transfected cells; host or cells: HEK293T
Protocol: Test compounds in DMSO or DMSO alone
concentration in 0.7% v/v DMSO final.
(also called NCOR2) corepressor protein-protein interaction. DNA encoding full length BCL6 and SMRT
fusion proteins BCL6-nanoLuc and SMRT-HaloTag, respectively. HEK293T cells were plated […] in T75
At the time of assay, compounds
dispensing (Labcyte Inc.). Frozen transfected HEK293T cells were thawed, centrifuged and freezing
DMSO final concentration.
After a short centrifugation the
(1st emission filter) / 450-80 nm (2nd emission filter). The % inhibition at each test concentration was
sigmoidal four-parameter logistic fit equation. […]

[4] = supplement, read-out: BCL6 NanoBRET IC50 Geometric Mean
[5] = HEK-293T, Table S2, read-out: BCL6 NanoBRET IC90 individual replicates
[6] = geometric mean of at least three replicates, read-out: NanoBRET IC50
[7] = single replicates, Table S2, read-out: BCL6 NanoBRET IC50 individual replicates
[8] = Table S1, read-out: BCL6 TR-FRET pIC50 mean (converted)
[9] = geometric mean of at least three replicates, read-out: BCL6 TR-FRET IC50

For `C[C@H]1C[C@@H](O)CN(c2ncc(Cl)c(Nc3ccc4c(c3)c3c(c(=O)n4C)OCC(F)(F)[C@H](C4CC4)N3)n2)C1` [CCT373566], the “MSD degrader assay [OCI-Ly1] Dmax” value (BCL6) is given as 92%, the DC50 (BCL6) is given as 0.7 nM and the “Aq. Sol.” value [1] is given as 10 µM. The “CACO-2 A-B” value [2] was 3.2e-06 cm/s, the “CACO-2 (ER)” value [2] was 13 and the IC50 (human BCL6 BTB domain; read-out: BCL6 TR-FRET IC50 Geometric Mean) was 2.2 nM.
For `C[C@@H]1C[C@H](O)CN(c2ncc(Cl)c(Nc3ccc4c(c3)c3c(c(=O)n4C)OCC(F)(F)[C@H](C4CC4)N3)n2)C1` [CCT373567], the DC50 (BCL6) is listed as over 10000 nM, the IC50 [3, 4] is listed as 25.9 nM and the “Aq. Sol.” value [1] is listed as 8 µM. For the same compound, the “CACO-2 A-B” value [2] was under 3e-06 cm/s, the “CACO-2 (ER)” value [2] was over 16 and the IC50 (human BCL6 BTB domain; BCL6 TR-FRET IC50 Geometric Mean) was 2.8 nM.
For `Cn1c(=O)c2c(c3cc(Nc4nc(N5C6CCC5COC6)ncc4Cl)ccc31)N[C@@H](C1CC1)C(F)(F)CO2` [compound 4, (S)-10-((2-(3-Oxa-8-azabicyclo[3.2.1]octan-8-yl)-5-chloropyrimidin-4-yl)amino)-2-cyclopropyl-3,3-difluoro-7-methyl-1,2,3,4-tetrahydro-[1,4]oxazepino[2,3-c]quinolin-6(7H)-one], the IC90 ([3]; HEK-293T, Table S2, several values per compound, read-out: BCL6 NanoBRET IC90 Geometric Mean) was 185 nM, the IC90 [3, 5] was 142 nM and the calculated free (unbound) cellular IC90 ([3]; HEK-293T, calculated free cellular IC90 from NanoBRET assay) was 42 nM. The IC90 ([3]; HEK-293T, geometric mean of at least three replicates, read-out: NanoBRET IC90) was 143 nM, the “BCL6 NanoBRET pIC50 mean” value ([3]; Table S2) was 7.9696 and the IC90 ([3]; Table S2, several values per compound, read-out: BCL6 NanoBRET IC90 Geometric Mean) was 101 nM and 154 nM. For the same compound, the IC50 [3, 6] was 10.7 nM and 11 nM, the IC50 [3, 7] was 12.3 nM and 8.2 nM and 12.1 nM and the IC90 (human BCL6 BTB domain; Table S1) was 10.2 nM. It also gave an IC50 (human BCL6 BTB domain; [8]) of 1.51 nM and an IC50 (human BCL6 BTB domain; [9]) of 1.4 nM.
With `Cn1c(=O)c2c(c3cc(Nc4nc(N5CC6CCC(C5)O6)ncc4Cl)ccc31)N[C@@H](C1CC1)C(F)(F)CO2` [compound 5, (S)-10-((2-(8-Oxa-3-azabicyclo[3.2.1]octan-3-yl)-5-chloropyrimidin-4-yl)amino)-2-cyclopropyl-3,3-difluoro-7-methyl-1,2,3,4-tetrahydro-[1,4]oxazepino[2,3-c]quinolin-6(7H)-one] the IC90 [3, 5] was 98.7 nM, the “BCL6 NanoBRET pIC50 mean” value ([3]; Table S2) was 7.9026 and the IC50 [3, 6] was 12.5 nM. The IC50 [3, 7] was 9.6 nM and 14.7 nM and 14 nM, the “BCL6 TR-FRET pIC50 mean” value (human BCL6 BTB domain; Table S1) was 8.527 and the IC90 (human BCL6 BTB domain; Table S1) was 19.9 nM. For the same compound, the IC50 (human BCL6 BTB domain; [9]) was 3 nM.
`Cn1c(=O)c2c(c3cc(Nc4nc(N5C6COCC5CC(O)C6)ncc4Cl)ccc31)N[C@@H](C1CC1)C(F)(F)CO2` (stereo partly drawn) [compound 8, (S)-10-((5-Chloro-2-((1R,5S,7R)-7-hydroxy-3-oxa-9-azabicyclo[3.3.1]-nonan-9-yl)pyrimidin-4-yl)amino)-2-cyclopropyl-3,3-difluoro-7-methyl-1,2,3,4-tetrahydro-[1,4]oxazepino[2,3-c]quinolin-6(7H)-one] gave an IC90 (human BCL6 BTB domain; Table S1) of 7.6 nM, an IC50 (human BCL6 BTB domain; [8]) of 1.31 nM and an IC50 (human BCL6 BTB domain; [9]) of 1.3 nM.
In the case of `Cn1c(=O)c2c(c3cc(Nc4nc(N5CCC5)ncc4Cl)ccc31)N[C@@H](C1CC1)C(F)(F)CO2` [compound 9, (S)-10-((2-(Azetidin-1-yl)-5-chloropyrimidin-4-yl)amino)-2-cyclopropyl-3,3-difluoro-7-methyl-1,2,3,4-tetrahydro-[1,4]oxazepino[2,3-c]quinolin-6(7H)-one], the IC90 [3, 5] is reported as 1620 nM, the “BCL6 NanoBRET pIC50 mean” value ([3]; Table S2) is reported as 6.8258 and the IC50 [3, 6] is reported as 149 nM. For the same compound, the IC50 [3, 7] was 229 nM and 48.1 nM and 302 nM, the IC50 [3, 4] was 149 nM and the “BCL6 TR-FRET pIC50 mean” value (human BCL6 BTB domain; Table S1) was 8.2581. The IC90 (human BCL6 BTB domain; Table S1) was 45.4 nM and the IC50 (human BCL6 BTB domain; [9]) was 5.5 nM.
For `COC1CN(c2ncc(Cl)c(Nc3ccc4c(c3)c3c(c(=O)n4C)OCC(F)(F)[C@H](C4CC4)N3)n2)C1` [compound 10, (S)-10-((5-Chloro-2-(3-methoxyazetidin-1-yl)pyrimidin-4-yl)amino)-2-cyclopropyl-3,3-difluoro-7-methyl-1,2,3,4-tetrahydro-[1,4]oxazepino[2,3-c]quinolin-6(7H)-one], the IC90 [3, 5] was 386 nM, the IC50 ([3]; Table S2, read-out: BCL6 NanoBRET pIC50 mean (converted)) was 43.6 nM and the IC50 [3, 6] was 38 nM. For the same compound, the IC50 [3, 7] was 26 nM and 57.5 nM and 55.3 nM, the IC90 (human BCL6 BTB domain; Table S1) was 34.1 nM and the IC50 (human BCL6 BTB domain; [8]) was 3.93 nM. It also gave an IC50 (human BCL6 BTB domain; [9]) of 3.7 nM.
